For the assay, the system named is caspase-3. Put plainly: active caspase-3 levels, beadmates kit / Luminex. The class given is cell-based, human. The following applies: 40 nM docetaxel, 48 hours, control siRNA cells. The source says: Docetaxel can cause cell death through induction of apoptosis (Kim et al., Int J Mol Med 11:799, 2003). To determine whether Pim-1 and BubR1 siRNAs could modulate a canonical apoptotic pathway in the absence and presence docetaxel, we studied activated caspase-3 levels in HCT116 cells (using a bioplex assay) (FIG. 14).
In an attempt to define the molecular basis for enhanced cell death associated with a Pim-1 knockdown, we examined the activation state of a key cellular pathway involved in cell survival, AKT. HCT116 were seeded at 4×10^5 cells/well on 6-well plates and the next day transfected with siRNAs at 16 nM using Lipofectamine 2000 (Invitrogen). After 24 hours, cells were untreated or treated with 5 and 40 nM docetaxel. Cells were lysed 24, 48 and 72 hours after docetaxel addition with ice-cold lysis buffer (50 mM HEPES buffer (PH7.4), 1% NP40, 2.5 mM EDTA, 100 mM sodium fluoride, 10 mM sodium PPI, protease inhibitor cocktail tablet (Roche), 2 mM sodium orthovanadate) and centrifuged at 12,000 g for 10 minutes. Lysates were then quantified for total protein levels using DC protein assay (BioRad).

Structures are written as SMILES.

For `CC(=O)O[C@@]12CO[C@@H]1C[C@H](O)[C@@]1(C)C(=O)[C@H](O)C3=C(C)[C@@H](OC(=O)[C@H](O)[C@@H](NC(=O)OC(C)(C)C)c4ccccc4)C[C@@](O)([C@@H](OC(=O)c4ccccc4)[C@H]21)C3(C)C` [docetaxel], the “caspase-3 activity in control cells” value is recorded as “induced”.

Source of the values: patent publication US20130252837A1, “METHOD FOR MEASURING RESISTANCE OR SENSITIVITY TO DOCETAXEL” (Sanofi US, priority 2004, published 2013).
